Results published in patent US11180474B2 (BRISTOL-MYERS SQUIBB COMPANY, priority 2016, dated 2021).

Key:
human TLR9 = target: T1, human TLR9 (Homo sapiens, UniProt Q9NR96); assay: TLR9 inhibition reporter assay (HEK-Blue cells, SEAP reporter, ODN2006 stimulation); type: cell-based; settings: HEK-Blue cells overexpressing human TLR9, ODN2006 5 nM
T1 construct: host or cells: HEK-Blue cells
T1 sequence (Q9NR96 26-1032): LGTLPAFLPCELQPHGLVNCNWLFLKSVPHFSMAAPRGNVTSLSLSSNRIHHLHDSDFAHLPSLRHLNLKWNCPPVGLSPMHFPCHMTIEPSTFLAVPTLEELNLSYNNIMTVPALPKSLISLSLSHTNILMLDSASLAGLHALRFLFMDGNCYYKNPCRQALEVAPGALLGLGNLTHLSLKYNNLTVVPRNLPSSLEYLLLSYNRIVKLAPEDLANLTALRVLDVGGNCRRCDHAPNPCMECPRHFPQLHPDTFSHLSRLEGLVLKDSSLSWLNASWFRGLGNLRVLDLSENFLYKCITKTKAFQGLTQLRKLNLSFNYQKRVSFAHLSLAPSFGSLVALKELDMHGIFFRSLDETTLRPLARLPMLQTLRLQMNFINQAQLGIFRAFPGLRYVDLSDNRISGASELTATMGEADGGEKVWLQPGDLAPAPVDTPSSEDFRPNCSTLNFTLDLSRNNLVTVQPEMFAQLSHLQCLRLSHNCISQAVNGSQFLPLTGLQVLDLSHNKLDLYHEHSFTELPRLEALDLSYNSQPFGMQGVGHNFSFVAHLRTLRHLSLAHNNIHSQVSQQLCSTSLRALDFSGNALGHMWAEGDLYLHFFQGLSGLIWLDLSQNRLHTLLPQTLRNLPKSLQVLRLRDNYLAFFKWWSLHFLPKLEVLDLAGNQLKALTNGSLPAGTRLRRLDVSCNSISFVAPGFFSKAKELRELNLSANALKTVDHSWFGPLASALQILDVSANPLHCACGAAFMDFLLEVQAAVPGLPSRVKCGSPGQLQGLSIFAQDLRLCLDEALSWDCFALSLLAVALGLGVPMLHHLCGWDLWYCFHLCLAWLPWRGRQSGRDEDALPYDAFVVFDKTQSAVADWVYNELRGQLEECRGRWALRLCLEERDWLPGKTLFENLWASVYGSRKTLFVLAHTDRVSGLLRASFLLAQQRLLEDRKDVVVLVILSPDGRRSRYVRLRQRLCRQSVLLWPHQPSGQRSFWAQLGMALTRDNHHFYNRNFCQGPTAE
Outline: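 Human TLR7/8/9 HEK-Blue reporter lines; dose range 0.05 nM–50 μM; 30 min RT preincubation; stimulus gardiquimod 7.5 μM / R848 15.9 μM / ODN2006 5 nM respectively; 22 h, 37 °C; SEAP detected colorimetrically.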

human TLR7 = target: T2, human TLR7 (Homo sapiens, UniProt Q9NYK1); assay: TLR7 inhibition reporter assay (HEK-Blue cells, SEAP reporter, gardiquimod stimulation); type: cell-based; settings: HEK-Blue cells overexpressing human TLR7, gardiquimod 7.5 μM
T2 construct: host or cells: HEK-Blue cells
T2 sequence (Q9NYK1 27-1049): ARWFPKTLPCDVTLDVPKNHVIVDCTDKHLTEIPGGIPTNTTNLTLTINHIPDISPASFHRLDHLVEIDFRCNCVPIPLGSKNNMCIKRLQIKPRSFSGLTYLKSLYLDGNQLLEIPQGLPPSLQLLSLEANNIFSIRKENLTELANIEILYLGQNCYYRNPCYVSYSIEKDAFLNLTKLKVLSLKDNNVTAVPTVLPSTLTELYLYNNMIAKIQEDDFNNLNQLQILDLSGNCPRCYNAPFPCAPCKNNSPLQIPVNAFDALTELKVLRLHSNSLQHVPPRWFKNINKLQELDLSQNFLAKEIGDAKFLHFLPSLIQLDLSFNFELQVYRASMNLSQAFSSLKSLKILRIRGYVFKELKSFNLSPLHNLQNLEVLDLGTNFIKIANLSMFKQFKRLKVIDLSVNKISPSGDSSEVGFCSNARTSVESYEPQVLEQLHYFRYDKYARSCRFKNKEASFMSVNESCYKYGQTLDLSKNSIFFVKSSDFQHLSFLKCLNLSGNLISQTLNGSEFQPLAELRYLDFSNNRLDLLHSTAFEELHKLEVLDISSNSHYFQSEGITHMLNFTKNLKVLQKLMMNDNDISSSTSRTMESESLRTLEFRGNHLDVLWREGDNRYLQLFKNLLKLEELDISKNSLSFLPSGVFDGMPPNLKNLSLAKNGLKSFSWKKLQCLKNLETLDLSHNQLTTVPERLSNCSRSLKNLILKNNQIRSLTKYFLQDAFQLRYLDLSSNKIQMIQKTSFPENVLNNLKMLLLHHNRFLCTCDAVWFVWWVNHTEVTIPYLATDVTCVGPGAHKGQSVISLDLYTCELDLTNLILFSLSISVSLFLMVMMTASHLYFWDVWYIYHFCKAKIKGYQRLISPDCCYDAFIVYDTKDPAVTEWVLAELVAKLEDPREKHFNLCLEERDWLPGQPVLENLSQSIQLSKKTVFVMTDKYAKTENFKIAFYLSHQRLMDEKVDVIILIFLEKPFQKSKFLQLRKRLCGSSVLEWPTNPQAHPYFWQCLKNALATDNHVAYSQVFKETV
Outline: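 Cells (15000/well for TLR7, 20,000 for TLR8) were treated with compounds over 0.05 nM-50 μM final. After 22 h at 37° C, 5% CO2, SEAP was measured with HEK-Blue Detection reagent; percent inhibition was taken as reduction of agonist-plus-DMSO signal relative to a known inhibitor.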

| IC50 (human TLR9) [µM] | IC50 (human TLR7) [µM] | SMILES |
| --- | --- | --- |
| 2.17 | 0.106 | COc1ccc(-c2[nH]c3ccc(C4CCN(C(=O)CN(C)C)CC4)cc3c2CC(F)F)cc1OC [Example 399, 1-(4-(3-(2,2-difluoroethyl)-2-(3,4-dimethoxyphenyl)-1H-indol-5-yl)piperidin-1-yl)-2-(dimethylamino)ethan-1-one] |
| 3.96 | 0.157 | COc1ccc(-c2[nH]c3ccc(C4CCN(CC(=O)N(C)C)CC4)cc3c2CC(F)F)cc1OC [Example 400, 2-(4-(3-(2,2-difluoroethyl)-2-(3,4-dimethoxyphenyl)-1H-indol-5-yl)piperidin-1-yl)-N,N-dimethylacetamide] |
| 5.29 | 0.132 | CNC(=O)CN1CCC(c2ccc3[nH]c(-c4ccc(OC)c(OC)c4)c(CC(F)F)c3c2)CC1 [Example 401, 2-(4-(3-(2,2-difluoroethyl)-2-(3,4-dimethoxyphenyl)-1H-indol-5-yl)piperidin-1-yl)-N-methylacetamide] |
| 5.82 | 0.544 | COc1ccc(-c2[nH]c3ccc(C4CCN(C(=O)CN(C)C)CC4)cc3c2C)cc1OC [Example 402, 1-(4-(2-(3,4-dimethoxyphenyl)-3-methyl-1H-indol-5-yl)piperidin-1-yl)-2-(dimethylamino)ethan-1-one] |
| 8.64 | 3.15 | CCN(CC)C(=O)C1CCCN(CC(=O)N2CCC(c3ccc4[nH]c(-c5ccc(OC)c(OC)c5)c(C)c4c3)CC2)C1 (stereo not drawn) [Example 404, 1-(2-(4-(2-(3,4-dimethoxyphenyl)-3-methyl-1H-indol-5-yl)piperidin-1-yl)-2-oxoethyl)-N,N-diethylpiperidine-3-carboxamide] |
| 13.5 | 18.3 | COc1ccc(-c2[nH]c3ccc(C4CCN(C(=O)CNC[C@@H](O)CO)CC4)cc3c2C)cc1OC [Example 405, (R)-2-((2,3-dihydroxypropyl)amino)-1-(4-(2-(3,4-dimethoxyphenyl)-3-methyl-1H-indol-5-yl)piperidin-1-yl)ethan-1-one] |
